Laboratory results from patent US7528252B2, “Derivatives of triazoly-imidazopyridine useful as ligands of the adenosine A2a receptor and their use as medicaments” (Sigma-Tau Industrie Farmaceutiche Riunite S.p.A., priority 2002, dated 2009).

How the values were obtained:
5-HT2A = 5-HT2A (Homo sapiens, UniProt P28223); test: Receptor binding study, 5-HT2A; conditions: mean values, n = 2, read-out: percent inhibition of control specific binding
AMPA = test: Receptor binding study, AMPA; conditions: 1 μM; mean values, n = 2
DA transporter = DA transporter (Homo sapiens, UniProt Q01959); test: Receptor binding study, DA transporter; conditions: mean values, n = 2, read-out: percent inhibition of control specific binding
Chain of DA transporter (Q01959 whole entry, species assumed): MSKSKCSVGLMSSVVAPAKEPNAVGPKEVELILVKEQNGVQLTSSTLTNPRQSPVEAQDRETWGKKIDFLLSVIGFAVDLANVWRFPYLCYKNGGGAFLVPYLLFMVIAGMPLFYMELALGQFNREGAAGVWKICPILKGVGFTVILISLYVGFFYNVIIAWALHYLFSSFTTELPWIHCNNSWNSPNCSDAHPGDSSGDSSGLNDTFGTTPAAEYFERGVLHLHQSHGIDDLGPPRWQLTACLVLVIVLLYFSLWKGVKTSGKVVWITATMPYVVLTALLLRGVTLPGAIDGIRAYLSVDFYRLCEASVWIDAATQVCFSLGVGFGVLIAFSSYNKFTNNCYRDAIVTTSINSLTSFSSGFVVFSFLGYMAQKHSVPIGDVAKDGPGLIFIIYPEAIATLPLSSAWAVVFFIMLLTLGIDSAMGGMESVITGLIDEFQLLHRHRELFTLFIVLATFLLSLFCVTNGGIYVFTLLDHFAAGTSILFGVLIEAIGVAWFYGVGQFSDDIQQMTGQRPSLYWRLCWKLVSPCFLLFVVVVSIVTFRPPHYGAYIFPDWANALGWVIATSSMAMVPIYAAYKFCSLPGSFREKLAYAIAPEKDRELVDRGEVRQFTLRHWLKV

P2X = test: Receptor binding study, P2X; conditions: 1 μM; mean values, n = 2
NE transporter = NE transporter (Homo sapiens, UniProt P23975); test: Receptor binding study, NE transporter; conditions: mean values, n = 2, read-out: percent inhibition of control specific binding
D4.4 (h) = D4.4 (h) (Homo sapiens, UniProt P21917); test: Receptor binding study, D4.4; conditions: mean values, n = 2, read-out: percent inhibition of control specific binding
β1 = β1 (Homo sapiens, UniProt P08588); test: Receptor binding study, β1; conditions: mean values, n = 2, read-out: percent inhibition of control specific binding
Chain of β1 (P08588 whole entry): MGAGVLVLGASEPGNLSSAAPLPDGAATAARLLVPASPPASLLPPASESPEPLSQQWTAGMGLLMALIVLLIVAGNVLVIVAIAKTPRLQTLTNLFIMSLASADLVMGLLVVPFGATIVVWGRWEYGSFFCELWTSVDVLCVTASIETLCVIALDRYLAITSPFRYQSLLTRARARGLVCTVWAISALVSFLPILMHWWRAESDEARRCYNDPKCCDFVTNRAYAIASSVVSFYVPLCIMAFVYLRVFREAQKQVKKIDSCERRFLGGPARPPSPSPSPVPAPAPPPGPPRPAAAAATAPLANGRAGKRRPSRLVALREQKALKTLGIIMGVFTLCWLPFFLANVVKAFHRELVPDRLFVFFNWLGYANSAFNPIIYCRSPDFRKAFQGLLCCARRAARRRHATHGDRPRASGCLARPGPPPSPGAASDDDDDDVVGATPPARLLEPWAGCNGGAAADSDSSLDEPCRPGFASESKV

ADOtransporter = test: Receptor binding study, ADO transporter; conditions: 1 μM; mean values, n = 2
Kainate = test: Receptor binding study, Kainate; conditions: 1 μM; mean values, n = 2
Cholinetransporter = target: T1, Cholinetransporter (Homo sapiens, UniProt Q9GZV3); test: Receptor binding study, Choline transporter; conditions: 1 μM; mean values, n = 2; read-out: percent inhibition of control specific binding
T1 sequence (Q9GZV3 1-580): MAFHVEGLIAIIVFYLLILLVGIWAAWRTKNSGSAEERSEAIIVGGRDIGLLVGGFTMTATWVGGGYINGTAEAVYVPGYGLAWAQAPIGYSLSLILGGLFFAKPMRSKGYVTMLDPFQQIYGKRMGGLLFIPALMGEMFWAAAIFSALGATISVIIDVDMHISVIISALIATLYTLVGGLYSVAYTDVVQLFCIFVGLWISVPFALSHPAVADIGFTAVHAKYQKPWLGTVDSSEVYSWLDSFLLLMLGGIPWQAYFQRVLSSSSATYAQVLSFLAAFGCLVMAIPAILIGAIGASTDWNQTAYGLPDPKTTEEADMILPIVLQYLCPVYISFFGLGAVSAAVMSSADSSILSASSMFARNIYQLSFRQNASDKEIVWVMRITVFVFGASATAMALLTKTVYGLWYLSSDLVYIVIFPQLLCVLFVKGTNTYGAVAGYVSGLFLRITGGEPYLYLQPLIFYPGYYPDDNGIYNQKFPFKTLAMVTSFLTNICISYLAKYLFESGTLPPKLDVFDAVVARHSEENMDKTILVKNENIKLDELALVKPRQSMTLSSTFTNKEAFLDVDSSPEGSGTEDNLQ

GABAa = test: Receptor binding study, GABAa; conditions: 1 μM; mean values, n = 2
GABAtransporter = test: Receptor binding study, GABA transporter; conditions: 1 μM; mean values, n = 2
5-HT4 = 5-HT4 (Homo sapiens, UniProt Q13639); test: Receptor binding study, 5-HT4; conditions: mean values, n = 2, read-out: percent inhibition of control specific binding
Chain of 5-HT4 (Q13639 whole entry, species assumed): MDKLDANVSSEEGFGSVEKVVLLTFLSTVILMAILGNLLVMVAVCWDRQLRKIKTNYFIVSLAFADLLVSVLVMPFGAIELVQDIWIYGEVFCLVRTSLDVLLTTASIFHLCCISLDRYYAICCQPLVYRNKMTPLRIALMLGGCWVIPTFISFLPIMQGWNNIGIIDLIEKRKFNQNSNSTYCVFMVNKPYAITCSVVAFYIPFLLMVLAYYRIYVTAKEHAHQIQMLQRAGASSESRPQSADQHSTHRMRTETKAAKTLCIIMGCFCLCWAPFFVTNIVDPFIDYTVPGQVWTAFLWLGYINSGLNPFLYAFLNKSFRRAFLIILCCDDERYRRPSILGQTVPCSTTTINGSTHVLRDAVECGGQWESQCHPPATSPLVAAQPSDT

D5 (h) = D5 (h) (Homo sapiens, UniProt P21918); test: Receptor binding study, D5; conditions: mean values, n = 2, read-out: percent inhibition of control specific binding
H1 (central) = H1 (central) (Cavia porcellus, UniProt P31389); test: Receptor binding study, H1 (central); conditions: mean values, n = 2, read-out: percent inhibition of control specific binding
Chain of H1 (central) (P31389 whole entry): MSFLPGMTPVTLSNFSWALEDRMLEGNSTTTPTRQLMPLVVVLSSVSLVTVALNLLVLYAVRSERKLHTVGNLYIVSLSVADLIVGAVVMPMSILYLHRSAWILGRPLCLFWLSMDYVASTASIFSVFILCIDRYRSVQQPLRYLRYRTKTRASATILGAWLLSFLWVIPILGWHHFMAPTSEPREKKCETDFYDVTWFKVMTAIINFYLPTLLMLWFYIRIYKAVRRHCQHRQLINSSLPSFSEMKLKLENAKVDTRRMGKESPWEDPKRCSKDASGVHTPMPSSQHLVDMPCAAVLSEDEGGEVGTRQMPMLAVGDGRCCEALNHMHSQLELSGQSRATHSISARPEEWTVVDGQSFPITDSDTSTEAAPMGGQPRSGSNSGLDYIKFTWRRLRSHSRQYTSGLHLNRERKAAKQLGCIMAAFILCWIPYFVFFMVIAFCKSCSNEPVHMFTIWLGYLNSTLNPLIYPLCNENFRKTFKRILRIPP

5-HT3 (h) = 5-HT3 (h) (Homo sapiens, UniProt P46098); test: Receptor binding study, 5-HT3; conditions: mean values, n = 2, read-out: percent inhibition of control specific binding
Chain of 5-HT3 (h) (P46098 24-478): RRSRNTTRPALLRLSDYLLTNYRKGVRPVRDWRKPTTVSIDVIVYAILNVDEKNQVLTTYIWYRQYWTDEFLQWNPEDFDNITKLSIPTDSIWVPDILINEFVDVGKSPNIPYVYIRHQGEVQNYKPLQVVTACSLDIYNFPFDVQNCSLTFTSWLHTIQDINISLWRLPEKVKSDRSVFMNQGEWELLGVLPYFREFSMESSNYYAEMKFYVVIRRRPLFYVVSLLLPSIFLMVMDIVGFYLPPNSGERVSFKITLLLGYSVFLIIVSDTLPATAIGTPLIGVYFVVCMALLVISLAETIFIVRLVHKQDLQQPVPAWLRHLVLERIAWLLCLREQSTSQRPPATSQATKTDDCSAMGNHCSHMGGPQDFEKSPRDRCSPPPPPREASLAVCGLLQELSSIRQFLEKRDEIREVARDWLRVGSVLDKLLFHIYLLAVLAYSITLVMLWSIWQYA

5-HT6 (h) = 5-HT6 (h) (Homo sapiens, UniProt P50406); test: Receptor binding study, 5-HT6; conditions: mean values, n = 2, read-out: percent inhibition of control specific binding
D1 = D1 (Homo sapiens, UniProt P21728); test: Receptor binding study, D1; conditions: mean values, n = 2, read-out: percent inhibition of control specific binding
M3 = M3 (Homo sapiens, UniProt P20309); test: Receptor binding study, M3; conditions: mean values, n = 2, read-out: percent inhibition of control specific binding
Chain of M3 (P20309 whole entry): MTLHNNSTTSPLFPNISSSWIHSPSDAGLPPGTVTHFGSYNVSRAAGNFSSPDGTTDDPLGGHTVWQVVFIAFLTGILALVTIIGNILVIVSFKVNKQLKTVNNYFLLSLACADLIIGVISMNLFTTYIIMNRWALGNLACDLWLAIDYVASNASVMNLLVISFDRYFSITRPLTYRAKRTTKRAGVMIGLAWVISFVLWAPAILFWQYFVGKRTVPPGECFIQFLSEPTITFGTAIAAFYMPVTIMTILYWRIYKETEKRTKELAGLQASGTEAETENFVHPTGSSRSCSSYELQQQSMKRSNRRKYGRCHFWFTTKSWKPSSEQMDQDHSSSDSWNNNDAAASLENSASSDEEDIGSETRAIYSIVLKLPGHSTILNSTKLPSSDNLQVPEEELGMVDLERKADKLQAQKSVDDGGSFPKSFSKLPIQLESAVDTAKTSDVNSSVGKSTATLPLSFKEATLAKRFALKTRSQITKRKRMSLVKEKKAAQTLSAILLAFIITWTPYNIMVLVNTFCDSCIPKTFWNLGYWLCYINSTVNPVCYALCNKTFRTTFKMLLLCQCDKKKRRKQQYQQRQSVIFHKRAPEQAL

M4 = M4 (Homo sapiens, UniProt P08173); test: Receptor binding study, M4; conditions: mean values, n = 2, read-out: percent inhibition of control specific binding
Chain of M4 (P08173 whole entry): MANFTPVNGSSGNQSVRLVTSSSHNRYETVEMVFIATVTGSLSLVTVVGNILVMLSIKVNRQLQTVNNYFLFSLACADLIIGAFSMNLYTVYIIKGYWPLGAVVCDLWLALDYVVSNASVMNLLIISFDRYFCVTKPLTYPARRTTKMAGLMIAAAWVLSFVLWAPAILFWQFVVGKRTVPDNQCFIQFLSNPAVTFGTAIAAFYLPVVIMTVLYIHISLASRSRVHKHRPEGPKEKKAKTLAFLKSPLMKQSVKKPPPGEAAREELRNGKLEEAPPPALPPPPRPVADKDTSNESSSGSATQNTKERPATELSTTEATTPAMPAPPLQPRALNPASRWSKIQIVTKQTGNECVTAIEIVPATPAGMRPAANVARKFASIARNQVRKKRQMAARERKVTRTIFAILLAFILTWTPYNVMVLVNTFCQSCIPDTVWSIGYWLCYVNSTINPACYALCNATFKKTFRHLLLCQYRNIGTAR

5-HT2C (h) = 5-HT2C (h) (Homo sapiens, UniProt P28335); test: Receptor binding study, 5-HT2C; conditions: mean values, n = 2, read-out: percent inhibition of control specific binding
Chain of 5-HT2C (h) (P28335 33-458): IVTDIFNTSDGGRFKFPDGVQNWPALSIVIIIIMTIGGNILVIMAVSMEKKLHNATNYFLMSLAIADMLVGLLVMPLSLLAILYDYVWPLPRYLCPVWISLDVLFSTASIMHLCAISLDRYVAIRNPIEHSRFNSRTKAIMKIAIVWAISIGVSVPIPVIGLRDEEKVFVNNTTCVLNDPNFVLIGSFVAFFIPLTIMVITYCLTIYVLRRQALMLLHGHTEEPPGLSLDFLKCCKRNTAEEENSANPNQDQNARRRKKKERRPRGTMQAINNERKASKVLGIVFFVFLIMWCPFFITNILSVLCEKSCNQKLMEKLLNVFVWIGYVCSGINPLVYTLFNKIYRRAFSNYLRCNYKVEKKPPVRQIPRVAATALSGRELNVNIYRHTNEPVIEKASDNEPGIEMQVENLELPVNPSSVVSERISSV

PCP = test: Receptor binding study, PCP; conditions: 1 μM; mean values, n = 2
BZD (central) = test: Receptor binding study, BZD (central); conditions: 1 μM; mean values, n = 2
M5 = target: T2, M5 (Homo sapiens, UniProt P08912); test: Receptor binding study, M5; conditions: 1 μM; mean values, n = 2; read-out: percent inhibition of control specific binding
T2 sequence (P08912 1-532): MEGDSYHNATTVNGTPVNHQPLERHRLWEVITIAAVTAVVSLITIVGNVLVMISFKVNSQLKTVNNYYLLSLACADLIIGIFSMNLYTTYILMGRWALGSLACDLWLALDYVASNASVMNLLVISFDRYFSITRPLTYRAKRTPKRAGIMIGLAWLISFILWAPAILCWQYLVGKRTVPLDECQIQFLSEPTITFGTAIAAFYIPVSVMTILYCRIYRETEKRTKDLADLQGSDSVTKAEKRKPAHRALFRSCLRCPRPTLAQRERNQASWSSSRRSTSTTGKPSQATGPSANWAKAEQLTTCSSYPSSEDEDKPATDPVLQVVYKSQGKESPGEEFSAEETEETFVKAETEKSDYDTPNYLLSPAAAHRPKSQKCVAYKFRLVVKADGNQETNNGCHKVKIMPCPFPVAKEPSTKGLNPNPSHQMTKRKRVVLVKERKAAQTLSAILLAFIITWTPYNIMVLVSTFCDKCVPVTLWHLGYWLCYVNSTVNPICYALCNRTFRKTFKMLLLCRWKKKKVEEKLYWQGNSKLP

Opiate (non-selective) = test: Receptor binding study, Opiate (non-selective); conditions: 1 μM; mean values, n = 2
D2 = D2 (Homo sapiens, UniProt P14416); test: Receptor binding study, D2; conditions: mean values, n = 2, read-out: percent inhibition of control specific binding
Chain of D2 (P14416 whole entry): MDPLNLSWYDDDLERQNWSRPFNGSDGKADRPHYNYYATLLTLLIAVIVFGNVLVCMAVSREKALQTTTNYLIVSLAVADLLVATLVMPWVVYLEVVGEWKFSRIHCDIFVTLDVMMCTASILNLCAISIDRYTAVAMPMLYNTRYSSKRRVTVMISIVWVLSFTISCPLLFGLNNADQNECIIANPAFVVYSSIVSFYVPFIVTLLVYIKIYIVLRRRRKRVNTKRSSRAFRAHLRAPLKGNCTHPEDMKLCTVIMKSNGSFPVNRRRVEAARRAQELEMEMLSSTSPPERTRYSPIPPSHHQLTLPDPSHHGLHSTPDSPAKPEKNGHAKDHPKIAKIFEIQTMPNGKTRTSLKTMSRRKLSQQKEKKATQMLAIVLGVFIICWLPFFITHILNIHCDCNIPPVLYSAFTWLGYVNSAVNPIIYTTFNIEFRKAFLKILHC

Chain of 5-HT2A (P28223 whole entry, species assumed): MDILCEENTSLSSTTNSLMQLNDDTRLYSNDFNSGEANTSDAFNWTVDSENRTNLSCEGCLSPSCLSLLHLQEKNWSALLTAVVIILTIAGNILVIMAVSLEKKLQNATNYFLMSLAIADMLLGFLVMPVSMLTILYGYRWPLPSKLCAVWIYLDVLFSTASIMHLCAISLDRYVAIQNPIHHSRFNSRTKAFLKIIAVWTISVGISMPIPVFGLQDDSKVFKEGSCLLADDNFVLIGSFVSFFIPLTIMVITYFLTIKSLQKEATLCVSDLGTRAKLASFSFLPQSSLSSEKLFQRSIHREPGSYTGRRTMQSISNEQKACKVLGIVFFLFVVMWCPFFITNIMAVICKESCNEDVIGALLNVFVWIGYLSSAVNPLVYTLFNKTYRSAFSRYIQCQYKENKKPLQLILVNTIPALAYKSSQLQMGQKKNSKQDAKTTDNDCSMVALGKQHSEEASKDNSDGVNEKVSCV

Structure (SMILES)	inhibition at 1 µM (5-HT2A)	percent inhibition of control specific binding (AMPA)	inhibition at 1 µM (DA transporter)	percent inhibition of control specific binding (P2X)	inhibition at 1 µM (NE transporter)	inhibition at 1 µM (D4.4 (h))	inhibition at 1 µM (β1)	percent inhibition of control specific binding (ADOtransporter)	percent inhibition of control specific binding (Kainate)	inhibition at 1 µM (Cholinetransporter)	percent inhibition of control specific binding (GABAa)	percent inhibition of control specific binding (GABAtransporter)	inhibition at 1 µM (5-HT4)	inhibition at 1 µM (D5 (h))	inhibition at 1 µM (H1 (central))	inhibition at 1 µM (5-HT3 (h))	inhibition at 1 µM (5-HT6 (h))	inhibition at 1 µM (D1)	inhibition at 1 µM (M3)	inhibition at 1 µM (M4)	also measured
CCCCc1nc(N)c2nc(-n3nccn3)n(C)c2n1 [ST 1535, 2-butyl-9-methyl-8-(2H-1,2,3-triazol-2-yl)-9H-purine-6-ylamine]	< 10%	— (The symbol — indicates an inhibition of less than 10%.)	< 10%	— (The symbol — indicates an inhibition of less than 10%.)	< 10%	< 10%	< 10%	24%	— (The symbol — indicates an inhibition of less than 10%.)	< 10%	— (The symbol — indicates an inhibition of less than 10%.)	— (The symbol — indicates an inhibition of less than 10%.)	< 10%	< 10%	< 10%	< 10%	< 10%	< 10%	< 10%	< 10%	inhibition at 1 µM (5-HT2C (h)): < 10%; percent inhibition of control specific binding (PCP): — (The symbol — indicates an inhibition of less than 10%.); percent inhibition of control specific binding (BZD (central)): — (The symbol — indicates an inhibition of less than 10%.); inhibition at 1 µM (M5): < 10%; percent inhibition of control specific binding (Opiate (non-selective)): — (The symbol — indicates an inhibition of less than 10%.); inhibition at 1 µM (D2): < 10%
CCCCCc1nc(N)c2nc(-n3nccn3)n(C)c2n1 [ST 2097, 9-methyl-2-pentyl-8-(2H-1,2,3-triazol-2-yl)-9H-purine-6-ylamine]	< 10%	— (The symbol — indicates an inhibition of less than 10%.)	< 10%	— (The symbol — indicates an inhibition of less than 10%.)	< 10%	< 10%	< 10%	34%	— (The symbol — indicates an inhibition of less than 10%.)	< 10%	— (The symbol — indicates an inhibition of less than 10%.)	— (The symbol — indicates an inhibition of less than 10%.)	< 10%	< 10%	< 10%	< 10%	< 10%	< 10%	< 10%	< 10%	inhibition at 1 µM (5-HT2C (h)): < 10%; percent inhibition of control specific binding (PCP): — (The symbol — indicates an inhibition of less than 10%.); percent inhibition of control specific binding (BZD (central)): — (The symbol — indicates an inhibition of less than 10%.); inhibition at 1 µM (M5): < 10%; percent inhibition of control specific binding (Opiate (non-selective)): — (The symbol — indicates an inhibition of less than 10%.); inhibition at 1 µM (D2): < 10%
